From the SangsterLogP compilation come the findings set out here.

The nature of data set [1]: method code SF-GLC, from DOI: 10.1007/bf00224496.
Data set [2] is described as follows: method code SF-HPLC, from PMID: 1515051. As to conditions: pH 6.0.
Data set [3] is described as follows: method code SF-AS, from DOI: 10.1021/jm00163a043, PMID: 2153206. As to conditions: pH 7.0.
Data set [4] in a line: method code SF-AS, from DOI: 10.1021/es00012a023, PMID: 22148214.
Data set [5] can be described thus: method code SF-NMR, from DOI: 10.1021/jm00157a023, PMID: 3806574.
Data set [6] is described as follows: method code SF-GLC, from DOI: 10.1021/je970069v.
The nature of data set [7]: method code SF-CR+DM, from DOI: 10.1021/ja01573a017. As to conditions: pH 6.5.
The nature of data set [8]: method code SF-AS, from DOI: 10.1007/bf01067967, PMID: 3820093. As to conditions: pH 7.5.
Data set [9] can be described thus: method code SF-HPLC, from DOI: 10.1016/0006-2952(84)90322-8, PMID: 6704182.
Data set [10] in a line: method code SF-EPR, from DOI: 10.1007/bf01870789, PMID: 2549250. As to conditions: pH 12.0.
The nature of data set [11]: method code SF-AS, from DOI: 10.1021/jm00223a031, PMID: 810572.
The nature of data set [12]: method code SF-AS, from DOI: 10.1111/j.1476-5381.1988.tb11523.x, PMID: 2900037.
A short description of data set [13]: method code SF-RC, from DOI: 10.1016/s0969-8051(98)00096-1, PMID: 10100217. As to conditions: pH 7.4.
Data set [14] is described as follows: method code SF-AS, from DOI: 10.1002/jps.2600650731. As to conditions: pH 11.5.
Data set [15] in a line: method code SF-AS, from DOI: 10.1016/s0021-9673(00)82600-x.
Data set [16] is described as follows: method code SF-AS, from DOI: 10.1021/jm00075a005, PMID: 8246220. As to conditions: pH 7.4.
Data set [17] is described as follows: method code SF-AS, from PMID: 3699148. As to conditions: pH 7.4.
Data set [18] is described as follows: method code SF, from DOI: 10.1016/j.bmcl.2006.04.097, PMID: 16714112.
Data set [19] in a line: method code SF-CR, from DOI: 10.1248/cpb.21.2417, PMID: 4779830. As to conditions: pH 6.0.
Data set [20] can be described thus: method code SF-AS, from KuchaÅ™, M.; Rejholec, V.; Miller, V. (1985). Chromatographically determined lipophilicity and intramolecular interactions of bioactive compounds. Pharmacochemistry Library, 8, 321-331. As to conditions: pH 3.4.
Data set [21] can be described thus: method code SF-AS, from DOI: 10.1002/ddr.430140205. As to conditions: pH 7.4.
Assay in data set [22]: not given
This is another data set of the same source.

Assay in data set [23]: not given
The source holds these as a separate data set.

The nature of data set [24]: method code SF-HPLC, from DOI: 10.1080/01483919108049396. As to conditions: pH 7.0.
The nature of data set [25]: method code SF-AS, from DOI: 10.1007/bf02877675, PMID: 411721.

Molecules are shown by their SMILES.

By logP is commonly meant the decadic logarithm of the partition coefficient of the neutral form, usually between octanol and water. A high value points to higher lipophilicity. For the molecule `C=C1C2CCC(C2)C1(C)C` (stereo not drawn), the logP in [1] was 4.56. Broadly, the logD is the decadic logarithm of the distribution of all forms, ionised or not, between an organic phase and buffer at a given pH. For `c1ccc2[nH]c(-c3cscn3)nc2c1`, the logD in data set [2] is 2.47. Take `Cc1cn([C@H]2C=C[C@@H](CO)O2)c(=O)[nH]c1=S`: the logD in data set [3] was 0.09.

The molecule `CC(C)OC(=O)CS(=O)c1ccccc1[N+](=O)[O-]` (stereo not drawn) yielded a logP in data set [4] of 1.59. In data set [5], `CCOCCOCCOP(=S)(N1CC1(C)C)N1CC1(C)C` (stereo not drawn) gave a log partition coefficient (logP) of 0.47. As for `Cc1cc(Cl)c(C(C)C)cc1Cl`, in data set [6], the lipophilicity (logP) was 5.6.

In the case of `Cc1ccc(CCCC(N)=O)c(O)c1`, in data set [7], the logD was 2.26.

For the molecule `Nc1ccc2ccccc2c1`, the logD in [8] was found to be 2.4. Turning to `O=c1ccn(C2OC(CO)C(O)C2O)c(=O)[nH]1` (stereo not drawn), in data set [9], the logP is -1.81. For `CN(CCO)C1CC(C)(C)N(O)C(C)(C)C1`, in data set [10], the logD is 0.53. In [11], `Oc1cccc2c(Cl)ccnc12` registered a logP of 2.67. `CCCOC(=O)n1c(-c2cscn2)nc2ccccc21`: in data set [2], the logD is 2.98.

`CNC(=C[N+](=O)[O-])NCCSCc1nccs1` yielded a logD in [12] (pH 9.0) of -0.15.

Turning to `CCOP(=S)(OCC)Oc1ccc([N+](=O)[O-])cc1`, the log partition coefficient (logP) was determined as 3.45. As for `COc1c(O)c(C)c(CCCCCCCCCCO)c(O)c1OC`, the pH-dependent lipophilicity (logD) in data set [13] was determined as 2.55. Consider `CC(C)OC(=O)CS(=O)c1ccc([N+](=O)[O-])cc1[N+](=O)[O-]` (stereo not drawn), for which, in data set [4], the log partition coefficient (logP) amounted to 1.61.

Molecule `CCC/N=C(N)/N=C(\N)Nc1ccc(Cl)cc1` returned a logD in data set [14] of 2.63.

Turning to `CN(C)c1cnn(-c2cccc(C(F)(F)F)c2)c(=O)c1Cl`, in data set [15], the lipophilicity (logP) stood at 2.67. For the molecule `CCCCCC/N=C(N)/N=C(\N)Nc1ccc(Cl)cc1`, the logD in data set [14] came out at 1.85. As to `COc1ccc(CON2C(=O)CC3(CCCC3)C2=O)cc1`, the logD in data set [16] is 2.23. Turning to `Cc1ccc(SCCNc2ccccc2C(N)=O)cc1`, the logD in data set [17] worked out at 3.15. Molecule `Fc1cccc(F)c1C1=NCCO1` gave a logP in data set [18] of 1.45. `COc1ccc(O)c2ncccc12`: in [11], the logP came out at 2.06. As to `CN1C=CC=CC1NS(=O)(=O)c1ccc(N)cc1` (stereo not drawn), the log distribution coefficient (logD) in [19] was -0.58. The molecule `CCc1ccc(C(C)(O)C(=O)O)cc1` (stereo not drawn) yielded a logD in data set [20] of 1.9. As to `Cc1ccnc2c(O)cccc12`, the logP in [11] amounted to 2.36. `CN(c1nccs1)S(=O)(=O)c1ccc(N)cc1` displayed a pH-dependent lipophilicity (logD) in [19] of 1.63. The molecule `CC(=O)OC[C@H]1O[C@@H](n2ccc(N)nc2=O)[C@@H](OC(C)=O)[C@@H]1OC(C)=O` returned a logP in [9] of -0.8. In data set [3], `O=c1[nH]c(=S)ccn1[C@H]1C=C[C@@H](CO)O1` gave a logD of -0.28.

`COC1=C(OC)C(=O)C(CCCCCCCCCCO)=C(C)C1=O`: the pH-dependent lipophilicity (logD) in [13] worked out at 2.96. In turn, `O=C1CC2(CCCC2)C(=O)N1Oc1ccccc1` yielded a logD in data set [16] of 1.77. With `Cc1c(Cl)c(Cl)c(C(C)C)c(Cl)c1Cl`, in data set [6], the logP was 6.8. Molecule `Nc1cc(-c2ccncc2)c[nH]c1=O` returned a logD in data set [21] of 0.54. As for `Fc1cccc(Cl)c1C1=NCCO1`, the logP in data set [18] was determined as 1.89. `CC(C)C(C(=O)O)c1ccc([N+](=O)[O-])cc1` (stereo not drawn) displayed a logP in data set [22] of 2.09. Consider `CON(C)C(=O)Nc1ccc(Cl)cc1`, for which the logP turned out to be 2.16.

In turn, `Cc1ccc(CC(=O)O)cc1` yielded a logP in data set [22] of 2.04. In turn, `Clc1cccc2ccccc12` came in with a logP in data set [23] of 3.9.

Regarding `Nc1ncnc2c1ncn2C1CCC(CO)O1` (stereo not drawn), the logD in data set [24] is -0.29.

`CCON1C(=O)CC2(CCCC2)C1=O` gave a logD in data set [16] of 1.26.

In data set [1], `CC1(C)C2CC3C(C2)C31C` yielded a logP of 4.85. `CNC1CC(C)(C)N(O)C(C)(C)C1` displayed a logD in data set [10] of 0.84. In [12] (pH 7.5), `O=C(NCCCOc1cccc(N2CCCCC2)c1)c1ccccc1` returned a log distribution coefficient (logD) of 3.97. In turn, `CCCCc1ccc(N)cc1` had a logD in data set [8] of 3.05. With `O=c1[nH]cnc2c1ncn2[C@H]1C[C@H](O)[C@@H](CO)O1`, the logD in data set [24] was -1.71. `N#CC(C#N)=NNc1cccc(Cl)c1`: the log partition coefficient (logP) in [25] stood at 3.13. Regarding `NC(=O)c1cc(Cl)ccc1NCCO`, the log distribution coefficient (logD) in data set [17] turned out to be 1.26. `O=[N+]([O-])c1ccccc1C1=NCCO1` registered a logP in data set [18] of 1.27. `Cc1ccc(NN=C(C#N)C#N)cc1` registered a log partition coefficient (logP) in data set [25] of 3.02. On to `CC(C)Cn1c(=O)n(C)c(=O)c2nc[nH]c21`, for which the logD in data set [21] is 1.22. Consider `Nc1cnn(-c2cccc(C(F)(F)F)c2)c(=O)c1Cl`, for which the logP in data set [15] amounted to 2.41. `Cc1cn([C@H]2C[C@H](N=[N+]=[N-])[C@@H](CO)O2)c(=O)[nH]c1=S` gave a logD in data set [3] of 1.07.

`COC1=C(OC)C(=O)C(C)=CC1=O` yielded a logD in data set [13] of 0.73.

In data set [25], `N#CC(C#N)=NNc1ccccc1` had a logP of 2.49. In [20], `COc1ccc(C(=O)CCCC(=O)O)cc1` showed a logD of 1.63. Regarding `CCOCCOCCOP(=S)(N1CC1)N1CC1`, the logP in data set [5] came out at 0.38. The molecule `COC(=O)CSc1ccccc1[N+](=O)[O-]` came in with a logP in data set [4] of 1.88. `S=P(N1CCOCCOCCOCCOCCOCC1)(N1CC1)N1CC1`: the logP in [5] came out at 0.75. `CNC(=NC#N)NCCSCc1csc(N=C(N)N)n1` came in with a logD in data set [12] (pH 9.0) of 0.6. On to `Oc1c(Cl)cc(Cl)c2ccccc12`, for which the logD in [7] stood at 4.76. Same read-out and setting: as for `O=[N+]([O-])c1ccc2c(O)cccc2c1`, the figure is 3.5. In turn, `CN(C(=N)N)/C(N)=N/c1ccc(Cl)cc1` displayed a logD in data set [14] of 1.58. Turning to `[cH:1]1[c:2]([Cl:3])[c:4]2[cH:5][cH:6][cH:7][c:8]([Cl:9])[c:10]2[cH:11][cH:12]1`, the logP in data set [23] amounted to 4.67. As for `CC1(C)C(C=C(Cl)Cl)C1C(=O)OCc1cccc(Oc2ccccc2)c1` (stereo not drawn), the logP was 5.85. In the case of `CCC(O)(C(=O)O)c1ccccc1` (stereo not drawn), in data set [20], the logD worked out at 1.37. `CC1(C)CC(N)CC(C)(C)N1O` showed a log distribution coefficient (logD) in data set [10] of 0.56. The molecule `CNc1cnn(-c2ccccc2)c(=O)c1Cl` returned a logP in data set [15] of 1.19. In turn, `NC(=O)c1ccccc1NCCO` returned a logD in data set [17] of -0.05.

In the case of `CC(=O)Nc1ccn([C@@H]2O[C@H](COC(C)=O)[C@@H](OC(C)=O)[C@@H]2OC(C)=O)c(=O)n1`, the logP in data set [9] was -0.16. Consider `CCc1[nH]c(=O)[nH]c1C(=O)c1ccncc1`, for which the log distribution coefficient (logD) in [21] stood at 0.08. The molecule `CCCCOc1ccc(CC(=O)O)cc1` returned a lipophilicity (logP) in data set [22] of 2.94. On to `C=C1CCC2(C(C)C)CC12` (stereo not drawn), for which the logP in data set [1] worked out at 4.63. In data set [2], `COC(=O)n1c(-c2cscn2)nc2ccccc21` displayed a pH-dependent lipophilicity (logD) of 2.05. Consider `CN1C=CSC1NS(=O)(=O)c1ccc(N)cc1` (stereo not drawn), for which the logD in data set [19] is -0.07. As to `O=C(Nc1ccn([C@H]2C[C@H](O)[C@@H](CO)O2)c(=O)n1)c1ccccc1`, the logD in [24] is 0.67.

Consider `CC(C)c1ccc(N)cc1`, for which the logD in data set [8] came to 2.31. For `Cc1c(Cl)cc(C(C)C)c(Cl)c1Cl`, the log partition coefficient (logP) in data set [6] is 6.2. In the case of `Clc1ccc2cccc(Cl)c2c1`, the logP in data set [23] was 4.56.
